Results: patent publication US8309685B2 (Celgene Avilomics Research, Inc., priority 2007, dated 2012)

What was measured:
[1] = molecular target: T1, A156T mutant of the HCV NS3/4A 1b protease enzyme (Hepatitis C virus genotype 1b, UniProt P26663, A1182T); assay: HCV Protease FRET Assay (IC50_APP), A156T mutant; assay type: biochemical; conditions: apparent IC50, A156T mutant; read-out: IC50_APP, HCV A156T
T1 construct: 10× stocks of NS3/4A protease enzyme from Bioenza (Mountain View, Calif.); purchased Bioenza (Mountain View, Calif.)
Method: (§1) HCV Protease FRET Assay for WT and Mutated NS3/4A 1b Enzymes (IC50—APP).
(§2) The following protocol was used to generate “apparent” IC50 (IC50—APP) values as depicted in Table 6, below. […] 5 μL of each enzyme were added to Corning (#3575) 384-well, black, microtiter plates (Corning, N.Y.) after spotting a 0.5 μL volume of 50% DMSO and serially diluted compounds prepared in 50% DMSO. Protease reactions were immediately started after enzyme addition with the addition of 45 μL of the FRET substrate and monitored for 60-90 minutes at λex485/λem520 in a Synergy^4 plate reader from BioTek (Winooski, Vt.). At the conclusion of each assay, progress curves from each well were examined for linear reaction kinetics and fit statistics (R^2, 95% confidence intervals, absolute sum of squares).
(§3) The compound numbers correspond to the compound numbers in Table 3. […] ;

[2] = molecular target: T2, D168A mutant of the HCV NS3/4A 1b protease enzyme (Hepatitis C virus genotype 1b, UniProt P26663, D1194A); assay: HCV Protease FRET Assay (IC50_APP), D168A mutant; assay type: biochemical; conditions: apparent IC50, D168A mutant; read-out: IC50_APP, HCV D168A
T2 construct: 10× stocks of NS3/4A protease enzyme from Bioenza (Mountain View, Calif.); purchased Bioenza (Mountain View, Calif.)
Method: as §1, §2, §3

[3] = test system: HCV RNA replicon in cell line ET (luc-ubi-neo/ET), human Huh7 hepatoma; assay: Method A: HCV RNA replicon antiviral assay (luciferase, ET cell line); assay type: cell-based, Hepatitis C virus; conditions: Hepatitis C virus, Huh-7, assay described in Example 22; for IC50: read-out: Replicon (IC50)
Method: The compounds were assayed to evaluate the antiviral activity and cytotoxicity of compounds in vitro using HCV RNA replicons. This assay used the cell line ET (luc-ubi-neo/ET), which is a human Huh7 hepatoma cell line that contains an HCV RNA replicon with a stable luciferase (Luc) reporter and three cell culture-adaptive mutations. […]
The ET cell line was grown in Dulbecco's modified essential media (DMEM), 10% fetal bovine serum (FBS), 1% penicillin-streptomycin (pen-strep), 1% glutamine, 250 μg/ml G418 in a 5% CO2 incubator at 37° C. All cell culture reagents were obtained from Mediatech (Manassas, Va.). Cells were trypsinized (1% trypsin:EDTA) and plated out at 5×10^3 cells/well in white 96-well assay plates (Costar) dedicated to cell number (cytotoxicity) or antiviral activity assessments. Drugs were added at six 3-fold concentrations each and the assay was run in DMEM, 5% FBS, 1% pen-strep, 1% glutamine. Human interferon alpha-2b (PBL Biolabs, New Brunswick, N.J.) was included in each run as a positive control compound. Cells were processed 72 hr post drug addition when the cells are still subconfluent. Antiviral activity was measured by analyzing replicon-derived luciferase activity using the Steady-Glo Luciferase Assay System (Promega, Madison, Wis.) according to manufacturer's instruction. The number of cells in each well was determined by CytoTox-1 reagent (Promega). Compound profile was derived by calculating applicable EC50 (effective concentration inhibiting virus replication by 50%), EC90 (effective concentration inhibiting virus replication by 90%), IC50 (concentration decreasing cell viability by 50%) and SI50 (selective index: […]) values.

[4] = molecular target: T3, wild type HCV NS3/4A 1b protease enzyme (Hepatitis C virus genotype 1b, UniProt P26663); assay: HCV Protease FRET Assay (IC50_APP), wild type; assay type: biochemical; conditions: read-out: IC50_APP, WT; apparent IC50, wild type NS3/4A 1b
T3 construct: 10× stocks of NS3/4A protease enzyme from Bioenza (Mountain View, Calif.); purchased Bioenza (Mountain View, Calif.)
Method: as §1, §2, §3

Structure (SMILES)	IC50 [1] [nM]	IC50 [2] [nM]	IC90 [3] [nM]	IC50 [3] [nM]	IC50 [4] [nM]
C#CCOC(=O)N[C@@H](CN(C)C(=O)CCCl)C(=O)N1C[C@H](Oc2cc(-c3ccccc3)nc3cc(OC)ccc23)C[C@H]1C(=O)N[C@]1(C(=O)NS(=O)(=O)C2CC2)C[C@H]1C=C [Compound I-71]	100 to 1000	100 to 1000	100 to 1000	100 to 1000	< 10
C=CC(=O)N[C@@H](C(=O)N1C[C@H](Oc2cc(-c3ccccc3)nc3cc(OC)ccc23)C[C@H]1C(=O)N[C@]1(C(=O)NS(=O)(=O)C2CC2)C[C@H]1C=C)c1ccccc1 [Compound I-66, (2S,4R)-1-((R)-2-acrylamido-phenylacetyl)-N-((1R,2S)-1-(cyclopropylsulfonylcarbamoyl)-2-vinylcyclopropyl)-4-(7-methoxy-2-phenylquinolin-4-yloxy)pyrrolidine-2-carboxamide]	100 to 1000	100 to 1000	100 to 1000	10 to 100	< 10
C=CC(=O)N[C@@H](C(=O)N1C[C@H](Oc2cc(-c3ccccc3)nc3cc(OC)ccc23)C[C@H]1C(=O)N[C@]1(C(=O)NS(=O)(=O)C2CC2)C[C@H]1C=C)C(C)C [Compound I-56, (2S,4R)-1-((R)-2-acrylamido-3-methylbutanoyl)-N-((1R,2S)-1-(cyclopropylsulfonylcarbamoyl)-2-vinylcyclopropyl)-4-(7-methoxy-2-phenylquinolin-4-yloxy)pyrrolidine-2-carboxamide]	10 to 100	100 to 1000	10 to 100	< 10	< 10
C=C[C@@H]1C[C@]1(NC(=O)[C@@H]1C[C@@H](Oc2cc(-c3ccccc3)nc3cc(OC)ccc23)CN1C(=O)[C@H](Cc1ccc(F)c([N+](=O)[O-])c1)NC(=O)OC(C)(C)C)C(=O)NS(=O)(=O)c1ccccc1 [Compound I-59, tert-butyl-(S)-1-((2S,4R)-4-(7-methoxy-2-phenylquinolin-4-yloxy)-2-((1R,2S)-1-(phenylsulfonylcarbamoyl)-2-vinylcyclopropylcarbamoyl)pyrrolidin-1-yl)-3-(4-fluoro-3-nitrophenyl)-1-oxopropan-2-ylcarbamate]	1000 to 10000	1000 to 10000	1000 to 10000	100 to 1000	< 10
C=C[C@@H]1C[C@]1(NC(=O)[C@@H]1C[C@@H](Oc2nccc3ccccc23)CN1C(=O)[C@H](CCC(=O)C=C(C)C)NC(=O)OC(C)(C)C)C(=O)NS(=O)(=O)C1CC1 [Compound I-86, tert-butyl-(S)-1-((2S,4R)-2-((1R,2S)-1-(cyclopropylsulfonylcarbamoyl)-2-vinylcyclopropylcarbamoyl)-4-(isoquinolin-1-yloxy)pyrrolidin-1-yl)-7-methyl-1,5-dioxooct-6-en-2-ylcarbamate]	100 to 1000	100 to 1000	10 to 100	< 10	< 10
C=C[C@@H]1C[C@]1(NC(=O)[C@@H]1C[C@@H](Oc2cc(-c3ccccc3)nc3cc(OC)ccc23)CN1C(=O)[C@H](CCC(=O)N[C@@H]1C(=O)O[C@@H]1C)NC(=O)OC(C)(C)C)C(=O)NS(=O)(=O)C1CC1 [Compound I-67, t-butyl-(2S)-1-((2S,4R)-2-((1R,2S)-1-(cyclopropylsulfonylcarbamoyl)-2-vinylcyclopropylcarbamoyl)-4-(7-methoxy-2-phenylquinolin-4-yloxy)pyrrolidin-1-yl)-5-((2R,3S)-2-methyl-4-oxooxetan-3-ylamino)-1,5-dioxopentan-2-ylcarbamate]	< 10	< 10	100 to 1000	10 to 100	< 10
C=C[C@@H]1C[C@]1(NC(=O)[C@@H]1C[C@@H](Oc2cc(-c3ccccc3)nc3cc(OC)ccc23)CN1C(=O)C(CN(C)C(=O)C(=C)C(F)(F)F)NC(=O)OC(C)(C)C)C(=O)NS(=O)(=O)c1ccccc1 (stereo in doubt) [Compound I-53, tert-butyl-(S)-1-((2S,4R)-4-(7-methoxy-2-phenylquinolin-4-yloxy)-2-((1R,2S)-1-(phenylsulfonylcarbamoyl)-2-vinylcyclopropylcarbamoyl)pyrrolidin-1-yl)-3-(N-methyl-2-(trifluoromethyl)acrylamido)-1-oxopropan-2-ylcarbamate]	10 to 100	100 to 1000	> 10000	100 to 1000	< 10
C=C[C@@H]1C[C@]1(NC(=O)[C@@H]1C[C@@H](Oc2cc(-c3ccccc3)nc3cc(OC)ccc23)CN1C(=O)[C@H](CCC(=O)N1CCC1=O)NC(=O)OC(C)(C)C)C(=O)NS(=O)(=O)C1CC1 [Compound I-70, t-butyl-(2S)-1-((2S,4R)-2-((1R,2S)-1-(cyclopropylsulfonylcarbamoyl)-2-vinylcyclopropylcarbamoyl)-4-(7-methoxy-2-phenylquinolin-4-yloxy)pyrrolidin-1-yl)-5-(2-oxoazetidinyl)-1,5-dioxopentan-2-ylcarbamate]	< 10	< 10	100 to 1000	100 to 1000	< 10
C#Cc1ccc(S(=O)(=O)NC(=O)[C@@]2(NC(=O)[C@@H]3C[C@@H](Oc4cc(-c5ccccc5)nc5cc(OC)ccc45)CN3C(=O)[C@H](CNC(=O)C=C)NC(=O)OC(C)(C)C)C[C@H]2C=C)cc1 [Compound I-61, t-butyl-(S)-3-acrylamido-1-((2S,4R)-2-((1R,2S)-1-(4-ethynylphenylsulfonylcarbamoyl)-2-vinylcyclopropylcarbamoyl)-4-(7-methoxy-2-phenylquinolin-4-yloxy)pyrrolidin-1-yl)-1-oxopropan-2-ylcarbamate]	1000 to 10000	1000 to 10000	1000 to 10000	100 to 1000	10 to 100
C=CC(=O)N(C)C[C@H](NC(=O)OC(C)(C)C)C(=O)N1C[C@H](Oc2cc(-c3ccccc3)nc3cc(OC)ccc23)C[C@H]1C(=O)N[C@]1(C(=O)NS(=O)(=O)C2CC2)C[C@H]1C=C [Compound I-52, tert-butyl-(S)-1-((2S,4R)-2-((1R,2S)-1-(cyclopropylsulfonylcarbamoyl)-2-vinylcyclopropylcarbamoyl)-4-(7-methoxy-2-phenylquinolin-4-yloxy)pyrrolidin-1-yl)-3-(N-methylacrylamido)-1-oxopropan-2-ylcarbamate]	100 to 1000	1000 to 10000	< 10	< 10	< 10
C=C[C@@H]1C[C@]1(NC(=O)[C@@H]1CC(Oc2cc(-c3ccccc3)nc3cc(OC)ccc23)CN1C(=O)OC(C)(C)C)C(=O)NS(=O)(=O)C1CC1 (stereo partly drawn) [Compound I-62]	100 to 1000	1000 to 10000	100 to 1000	10 to 100	< 10
C=CC(=O)NC[C@H](NC(=O)OC1CCCC1)C(=O)N1C[C@H](Oc2cc(-c3ccccc3)nc3cc(OC)ccc23)C[C@H]1C(=O)N[C@]1(C(=O)NS(=O)(=O)C2CC2)C[C@H]1C=C [Compound I-55, Cyclopentyl-(S)-3-acrylamido-1-((2S,4R)-2-((1R,2S)-1-(cyclopropylsulfonylcarbamoyl)-2-vinylcyclopropylcarbamoyl)-4-(7-methoxy-2-phenylquinolin-4-yloxy)pyrrolidin-1-yl)-1-oxopropan-2-ylcarbamate]	100 to 1000	100 to 1000	100 to 1000	< 10	< 10
